Earlier results, collected in patent EP1982712A1 (priority 2005, dated 2007).

Conditions: for Clearance (route of elimination) / distribution volumes / time to reach the maximum concentration: in vivo; for time to reach the maximum concentration: po

Row | Structure (SMILES) | Clearance (route of elimination) | distribution volumes | time to reach the maximum concentration | bioavailability (after oral administration)
1 | OC(Cn1cncn1)(Cn1cncn1)c1ccc(F)cc1F [fluconazole, Fluconazole] | eliminated in a higher proportion in urine | 0.7 to 1 L/kg | two | 
2 | CCC(C)n1ncn(-c2ccc(N3CCN(c4ccc(OCC5COC(Cn6cncn6)(c6ccc(Cl)cc6Cl)O5)cc4)CC3)cc2)c1=O (stereo not shown) [itraconazole, Itraconazole] | cleared mainly through hepatic metabolism | about 10.7 l/kg | up to four | about 50%
